From patent US20070078373A1, “PULSATILE DELIVERY OF GONADOTROPIN-RELEASING HORMONE FROM A PRE-LOADED INTEGRATED ELECTROTRANSPORT PATCH” (Vyteris, Inc., priority 2005, published 2007) come the findings set out here.

Data set [1] is described as follows: Pulsatile transdermal iontophoresis of GnRH in pigs, plasma PK (Example 1). The class given is in vivo, Yorkshire pigs. The note with it: for plasma concentrations: condition #2 (2 mg/mL patch). As to the method:
(§1) Six prepubescent female Yorkshire pigs were used for this Example. A crossover design was used whereby each animal received both subcutaneous (SC) and iontophoretic treatments. Subcutaneous and iontophoresis experiments were spaced two weeks apart to meet acceptable animal blood draw limits. The subcutaneous injection experiments were performed first in the sequence. During the two week study the animal weights ranged from 15-32 kg.
The animal hair were clipped the night before the experiment. Prior to applying patches, a skin site free of obvious cuts and scrapes was selected. The selected skin site was wiped clean with warm water and an alcohol-loaded gauze pad and patted dry.
Iontophoretic hydrogel patches prepared according to Patch Fabrication Platform I (5 cm^2 active area) were used in these studies. The patches were loaded with GnRH (HCl) solution to provide final concentration of either 10 mg/mL, GnRH (HC 1) or 2 mg/mL GnRH (HCl) in the patch. The pH of the gel surface was from about 5 to about 5.5.
(§2) All animals were placed in a sling under general propofol anesthesia and jugular, ear vein and arterial catheters placed percutaneously. For subcutaneous injection studies, a venous catheter was placed against the lower abdominal wall of the animal and 20 μg of drug was injected at 90-min intervals (total 5 dosing cycles). Each drug injection was followed by saline flush. The subcutaneous injection study in each animal was followed by iontophoresis administration in the same animal two weeks later. The iontophoresis experiments also involved five dosing cycles at 90-minute intervals. The drug loaded patches were placed on the back of the animal just off the midline section.
A laboratory controller was used as a constant current source. The controller is a battery operated electrotransport controller and delivers a preprogrammed current density profile for experimental studies. In addition, the controller measures the voltage across and the current through an electrotransport patch during drug delivery. The accuracy of the delivered current is ±1% of full-scale. The controller has a maximum voltage of 35 V and can take readings once per second for up to an hour. The accuracy of the recorded current is ±1% of full-scale. The accuracy of the recorded voltage is 0.8 V Max. There are no moving parts on the controller. Infrared transmission of the delivery profile and data retrieval to a computer ensures there are no disturbances during the treatment of a subject.
Example 1 utilized a current delivery profile comprising five cycles of eight minute pulses each having a current of 1.2 mA, with rest times of 90 minutes between pulses.
(§3) Blood samples were drawn from the jugular catheter into pre-chilled 3 mL vacutainer tubes using the following protocol. The tubes contained EDTA (1 mg/mL of blood) and Aprotinin (500 KIU/mL, of blood). A 2 mL, flush volume of blood was drawn followed by a 3 mL sample. The blood samples were withdrawn as outlined in Table G below. The tubes were centrifuged within 15 min of blood collection at 1600 rpm for 15 min at 4° C. The separated plasma was split into two (approximately equal volume) 2 mL tubes and frozen on dry ice. Samples were stored at −70° C. until shipment. The samples were analyzed using an I^125 radio labeled immnunoassay.
All experimental animals were allowed to recover from anesthesia after sutaneous treatment. The jugular catheter was left over night and removed after 24 hour blood draw was complete. Immediately following the 24 hour iontophoresis blood draw, animals were euthanized. Animal 1 died seven days after subcutaneous treatment. Animals 2, 3, and 4 received iontophoresis under condition #1 and animals 5 and 6 received iontophoresis under condition #2.

The next data set in a line: in vivo. The arrangement: species or system Yorkshire pigs. The note with it: pig, sc. As to the method: as §1
The subcutaneous dosing solutions of concentration 200 μg/mL and 400 μg/mL, were prepared in pH 5.0 water (pH of maximum stability), Pigs 1 and 2 received 50 μl of 400 μg/mL, solution, while pigs 3-6 received 100 μl of 200 μg/mL, solution for each of the 5 doses.
as §2, §3

On the set-up of data set [2]: species or system Yorkshire pigs. The note with it: pig, in vivo. As to the method:
Six prepubescent female Yorkshire pigs (numbered from 7-12) were used in this set of studies. Each animal received two iontophoretic treatments. A first set of three animals received 50 mg/mL, drug concentration using five 8-min pulses (condition #3) and a week later received the same concentration using eight 5-min pulses (condition #5). A second set of three animals received 25 mg/mL drug concentration using five 8-min pulses (condition #4) and a week later received the same concentration using eight 5-min pulses (condition #6). The five 8-min pulse experiments were performed first in the sequence. During the span of the study the animal weights ranged from approximately 18-33 kg.
The animals were prepared as described in Example 1. Inotophoretic hydrogel patches prepared according to Patch Fabrication Platform I (5 cm^2 active area) were used in these studies. The patches were loaded with GnRH (HCl) solution to provide final concentration of either 25 mg/mL GnRH (HC l) or 50 mg/mL GnRH (HCl) in the patch. The pH of the gel surface was measured to be 5.0±0.5. The patches were placed on the back of the animal just off the midline section. The controller, as described in Example 1, was used. One patch each was used throughout the entire delivery period for conditions 3-5. For condition #6, the patch was replaced with a fresh patch after pulse 5. The experimental conditions are summarized in Table K. Example 2 utilized current delivery profiles comprising five cycles of eight minute pulses each having a current of 1.2 mA for conditions #3 and #4; and eight cycles of five minute pulses each having a current of 1.2 mA for conditions #5 and #6. Each profile had rest times of 90 minutes between pulses.
Blood samples were drawn from a jugular catheter at times as disclosed in Table L, and treated according to the protocol set forth in Example 1.

On the set-up of data set [3]: species or system Yorkshire pigs. The note with it: pig, in vivo. On the procedure:
Three prepubescent female Yorkshire pigs (numbered 13-15) were used in this Example. Each animal received one iontophoretic treatment for eight 90 minute cycles and a ninth cycle with subcutaneous (“SC”) dosing for comparison. The ionotophoretic devices were prepared according to Patch Fabrication Platform I (5 cm^2 active area). The patches were loaded with GnRH (HCl) solution to provide final concentration of 25 mg/mL, GnRH. The pH of the gel surface was measured to be 5.0±0.5. The patches were stored at 5° C. at all times except during travel to the study site. The SC dosing solution used in animal 13 was prepared 4 days before use and stored at room temperature (“RT”). The SC dosing solution used in animal 14 was prepared 6 days before use and stored mainly at RT. The SC dosing solution used in animal 15 was prepared 1 day before use and stored at RT. During the study, the animal weights ranged from approximately 15-30 kg. […] The animals were prepared as described in Example 1. The drug loaded patches were placed on the back of the animal just off the midline section. One patch each was used throughout the eight delivery pulses. The controller, as described in Example 1, was used as a constant current source. Blood samples were drawn from a jugular catheter at times as disclosed in Table P, and treated according to the analytical protocol set forth in Example 1.
This is another data set of the same source.

The mark [4] stands for this setting: condition #1, animal weight normalized, pulses 1-5.

Structures can show the parent of a compound that is named as a salt.

Usually Tmax stands for the time from dosing to the highest level. In general, AUC refers to concentration integrated over time. A high value points to high exposure. `CC(C)C[C@H](NC(=O)CNC(=O)[C@H](Cc1ccc(O)cc1)NC(=O)[C@H](CO)NC(=O)[C@H](Cc1c[nH]c2ccccc12)NC(=O)[C@H](Cc1cnc[nH]1)NC(=O)[C@@H]1CCC(=O)N1)C(=O)N[C@@H](CCCNC(=N)N)C(=O)N1CCC[C@H]1C(=O)NCC(N)=O` [GnRH, gonadorelin hydrochloride]: in data set [1] (condition #1, all pulses), the “ratio of the mean CV for AUC between iontophoretic and subcutaneous drug delivery” value worked out at 1.9; the “ratio of the mean CV for Cmax between iontophoretic and subcutaneous drug delivery” value is given as 2.0. Further, in data set [1] (setting [4]), the “Mean coefficient of variation (for AUC) for iontophoretic drug delivery” value was 35% and the “mean CV (for Cmax) for iontophoretic drug delivery” value is 40%. Besides, in data set [1] (condition #1, pulse 1 excluded), the “mean CV (for AUC) for iontophoretic drug delivery” value is on record as 15%; the “mean CV (for Cmax) for iontophoretic drug delivery” value worked out at 22%; the “ratio of the mean CV for AUC between iontophoretic and subcutaneous drug delivery” value stood at 0.83; the “ratio of the mean CV for Cmax between iontophoretic and subcutaneous drug delivery” value is 1.1. For the same compound, in data set [1] (condition #1 vs subcutaneous 20 μg dose, animal weight normalized), the “percent difference between iontophoresis and subcutaneous means, of the subcutaneous AUC” value is on record as 47%. Moreover, the “percent difference between iontophoresis and subcutaneous Cmax means, of the subcutaneous mean Cmax” value in data set [1] (condition #1 vs subcutaneous, animal weight normalized) was 32%. In addition, the plasma concentrations entry in data set [1] (animal 5, first 3 pulses) was “below assay limit of detection”. In addition, the plasma concentrations entry in data set [1] (animal 6, first pulse) is on record as “below assay limit of detection”. For the same compound, in data set [1] (condition #2 vs condition #1), the “Mean AUC for pulses 4 and 5, fold less than iontophoresis condition #1” value amounted to 5.6 fold; the “Mean Cmax for pulses 4 and 5, fold less than iontophoresis condition #1” value is recorded as 4.6 fold. In addition, the Tmax in data set [1] (female, Yorkshire, pig, in vivo, Tmax) was 20 min. In the data set “in vivo” (female, Yorkshire, 20 ug, Subcut. AUC), this compound showed an AUC of 0.742 ng·h/mL. For the same compound, the Tmax in “in vivo” (female, Yorkshire, Subcut Tmax) was 19 min. In the data set “in vivo” (20 ug), the “Mean CV (for AUC) for subcutaneous drug delivery” value is 18% and the “Mean CV (for Cmax) for subcutaneous drug delivery” value came out at 20%. Further, in data set [2], the “Mean AUC, less than for 10 mg/mL drug concentration and 8-min pulses (Example 1)” value was 25%; the “Mean Cmax, less than for 10 mg/mL drug concentration and 8-min pulses (Example 1)” value is 25%; the “drug delivery, less compared with 10 mg/mL drug concentration and 8-minute pulses” value stood at 25%. The “Tmax coefficient of variation over pulses 2-8” value in data set [3] was 9%.
